Results as given in patent US20230340012A1, “NATURAL AND SYNTHETIC COMPOUNDS FOR TREATING CANCER AND OTHER DISEASES” (PACIFIC ARROW LIMITED, priority 2009, published 2023).
Several values for one entry are separate records, joined by “and”; a condition that tells them apart may be missing. Equal entries are not always repeated.

Columns and labels:
[1] = tested on: Human leukemia cells K562; experiment: Inhibition of human leukemia K562 cells, cell counting; format: cell-based
Procedure: Method: • 1. Cells: Human leukemia cells K562 in RPMI1640 medium. • 2. Drug: Tig-S (1000x stock solution in DMSO). • 3. Start cells concentration: […] (500000/ml). • 4. Cells were cultured with or without drug for total of four days. • 5. Cell number is doubled after 2 days of incubation. Fresh medium (equal volume, with or without drug) was then added to culture. • 6. Cells were counted every day.

[2] = tested on: Human leukemia cells K562; experiment: Inhibition of cell cycling, K562, flow cytometry; format: cell-based; details: K562, three days
Procedure: • 1. Method: Cells: Human leukemia cells K562 cultured in RPMI1640 medium. • 2. Drug: compound from present application or Tig-S (1000x stock solution in DMSO). • 3. Start cells concentration: 500000 /ml. • 4. Cells were cultured with drug (0 - 20 ug/ml) for total of three days. • 5. Cells were harvested by centrifugation (136xg, 6 minutes); fixed with 70% ethanol and kept in -20° C. before staining. • 6. Staining: Fixed cells were stained with Propidium iodide/RNase A/0.1% Triton X-100 in PBS. • 7. Flow Cytometry Analysis was performed in Baylor Core Facility with a LSRII instrument. • 8. Analysis: Single cell was gated and cell count - FL2-Area histogram were plotted. • 9. Cell distribution in different cell-cycle phases (G0/G1, S, G2/M) was analyzed.

Jurkat cells = experiment: Agonist activity of anti-DR5 antibody with Tig-R in Jurkat cells, MTT; format: cell-based, human
Procedure: Experiment 44: Agonist activity of […] anti-DR5 antibody with Tig-R in Jurkat cells Jurkat cells (Human Acute T-cell leukemia) were cultured in RPMI1640 medium with 10% FBS, antibiotics (Pen Strep) and L-Glutamine in a 37C, 5% CO2 incubator. Cells in log-growth phase (about 0.5 million cells per ml) were treated with antibody (AB) or/and Tig-R. The antibody is Human TRAIL R2/TNFRSF 10B Antibody from R&D (MAB631-100). Treatment time is 2 days. Inhibition of cell growth after treatment was determined by MTT assay.
Conditions for combination studies: Tig-R (2.5 ug/ml) was added together with AB (2-8 ng/ml). Cells

[3] = tested on: DR5 (TNFRSF10B) in ES2 cells; experiment: Induction of DR5 in ES2 cells, Western blot; format: cell-based, human; details: experiment 1, column head R 7.5, 2 days
[4] = tested on: Capan cells (pancreas carcinoma); experiment: Agonist activity of anti-DR5 antibody with Tig-R in Capan cells, MTT; format: cell-based, human
Procedure: Capan cells (pancreas carcinoma) were cultured in RPMI1640 medium supplemented with 10% FBS, antibiotics (Pen Strep) and L-Glutamine. Cells were incubated in a 37° C., 5% CO2 incubator.
Antibody: Antibody against Human TRAIL R2/TNFRSF 10B, (from R&D Systems cat# MAB631-100).
Treatment. Cells in log-growth phase were used. Cells were plated in 96-welled plate with 10 K/well 1-2 days before treatment.
Antibody are serially diluted with medium before adding to culture and incubated for 2 days.
After a treatment for 2 days, the quantity of live cells is then determined with MTT assay*. The percentage of cell growth with drugs was determined by comparing to the no-drug (DMSO) control.

[5] = tested on: DR5 (TNFRSF10B) in U2OS cells; experiment: DR5 Western blot, U2OS cells; format: cell-based, human
[6] = tested on: DR5 (TNFRSF10B) in HepG2 cells; experiment: DR5 Western blot, HepG2 cells; format: cell-based, human; details: 2 days
Procedure: A. Cells and drug-treatment: HepG2 cells (liver cancer cells), CAPAN cells, ES2 cells (Ovary cell) were cultured in DMEM medium with 10% FBS, antibiotics (Pen Strep) and L-Glutamine in a 37° C., 5% CO2 incubator. Cells in log-growth phase were treated with Tig-R (10 ug/ml), Tig-S (4 ug/ml) or DMSO (as control) for 2 days.
B. Total cell protein extraction: Drug-treated cells were collected, pelleted with centrifugation. The cell pellet was extracted with SDS-Sample buffer (containing PMSF and protease inhibitors cocktail). About 0.1 gram cell pellet was extracted in 1 ml of extraction buffer. The cell extract was then incubated in boiling water bath for 6 minutes with occasionally vortexing. The protein extract was immediately frozen in -80° C. before used.
C. SDS gel electrophoresis: 10-20 ug of protein sample was loaded into each lane of a 10% SDS gel. Electrophoresis was conducted with 100 volt constant for 2 hours.
D. Western Blot: Separated proteins from SDS gel were transferred to a nitrocellulose membrane, which was blocked with 5% non-fat dry milk. The membrane was then exposed to 1st antibody (anti-TNFRSF10B) over night, then washed. The membrane was then incubated in 2nd antibody (anti-mouse-AP conjugated) for an hour, then washed. The immuno-bands were developed with BCIP/NBT substrate.
E. Another SDS gel with same sample loading was stained with Coomassie Brilliant Blue (CBB) for protein staining.
F. Determination of Western blot band intensity: The band-images of Western blot were captured with a digital camera and the intensity of bands was determined using “Image J” software.

[7] = U2OS cells, Tig-R, single experiments 1-2
[8] = HepG2 cells, Tig-R 10 ug/ml, single experiments 1-4

Compound | No growth (IC100), K562 ([1]; beginning on day 2) | IC50, Leukemia K562 cells growth ([1]; cell counting, up to four days) | concentration from which cells in G2/M phase decrease [2] | effect on cell cycle [2] | combined effect with anti-DR5 antibody (Jurkat cells; Jurkat, Tig-R 2.5 ug/ml) | increase of inhibition with Tig-R (Jurkat cells; Tig-R 2.5 ug/ml added to antibody) | inhibition of cell growth (Jurkat cells; Tig-R 2.5 ug/ml alone, 2 days) | DR5 Western blot band intensity (Image J) [3] | DR5 band intensity, % of DMSO [3] | combined effect with anti-DR5 antibody ([4]; Capan, Tig-R 2.5 or 5 ug/ml) | % Inhibition Experimental ([4]; R 2.5 ug/ml alone) | % Inhibition Experimental ([4]; R 5 ug/ml alone) | DR5 band intensity, % of DMSO, Average (%) ([5]; U2OS cells, Tig-R, average of 2 experiments) | DR5 Western blot band intensity (Image J) [5, 7] | DR5 band intensity, % of DMSO [5, 7] | increase of DR5 over DMSO control cells ([5]; U2OS, Tig-R treatment) | increase of DR5 over DMSO control cells ([6]; HepG2, Tig-R 10 ug/ml) | DR5 band intensity, % of DMSO, Average (%) ([6]; HepG2 cells, Tig-R 10 ug/ml, average of 4 experiments, SD 37) | DR5 Western blot band intensity (Image J) [6, 8] | DR5 band intensity, % of DMSO [6, 8]
CC=C(C)C(=O)OCC1(C)C(O)CCC2(C)C1CCC1(C)C2CC=C2C3CC(C)(C)C(OC(=O)C(C)=CC)C(O)C3(CO)C(O)CC21C (centres unmarked) [Tig-S] | ≥ 2.5 µg/mL | about 0.6 ug/ml | ≥ 0.6 µg/mL | arresting cells in the S-phase | – | – | – | – | – | – | – | – | – | – | – | – | – | – | – | –
24,28-O-Tigloyl-3β,16α, 21β, 22a, 24β, 28-hexahydroxyolean-12-ene [Tig-R] | – | – | – | – | synergistic | about 20% | 8% | 29902 | 157% | synergistic | 20% | 29% | 206% | 18269 and 16969 | 209% and 203% | 106% | 69% | 169% | 31752 and 19291 and 22435 and 33645 | 194% and 122% and 202% and 156%
